Results reported in PubChem BioAssay AID248 (DTP/NCI, 2004).
Where “and” joins values, the source holds several entries; their conditions need not be identical. Equal entries are not always repeated. Toxic doses and inconclusive results are not listed. No stated cut-off is given here; in the data, active means T/C of 150% or more; inactive means T/C below 125%.

Test system: L1210 leukemia ip in BDF1 mice, survival T/C
Assay: NCI In Vivo Anticancer Drug Screen. Data for tumor model L1210 Leukemia (intraperitoneal) in B6D2F1 (BDF1) mice
Details: endpoint: mean survival time, higher = longer survival
Summary of the method: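 Tumor cells were implanted, animals were treated, and survival was followed. The result divides the treated measurement by the vehicle-control measurement.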

[1] = dose: 100.0 mg/kg/injection, schedule: Q01DX001 (ip), vehicle: saline
[2] = dose: 200.0 mg/kg/injection, schedule: Q01DX001 (ip), vehicle: saline
[3] = dose: 50.0 mg/kg/injection, schedule: Q01DX009 (ip), vehicle: Klucel (hydroxypropylcellulose) (HPC)
[4] = dose: 100.0 mg/kg/injection, schedule: Q01DX009 (ip), vehicle: Klucel (hydroxypropylcellulose) (HPC)
[5] = dose: 100.0 mg/kg/injection, schedule: Q04DX003 (ip), vehicle: Klucel (hydroxypropylcellulose) (HPC)
[6] = dose: 200.0 mg/kg/injection, schedule: Q01DX009 (ip), vehicle: Klucel (hydroxypropylcellulose) (HPC)
[7] = dose: 200.0 mg/kg/injection, schedule: Q04DX003 (ip), vehicle: Klucel (hydroxypropylcellulose) (HPC)
[8] = dose: 400.0 mg/kg/injection, schedule: Q01DX001 (ip), vehicle: saline
[9] = dose: 400.0 mg/kg/injection, schedule: Q04DX003 (ip), vehicle: Klucel (hydroxypropylcellulose) (HPC)

Measured: T/C

Cc1cc(C)c2c(SC(C)C)nc(N)nc2n1
inactive: dose: 100.0 mg/kg/injection, schedule: Q01DX Z (ip), vehicle: methylcellulose (MC) 95 % of control | dose: 200.0 mg/kg/injection, schedule: Q01DX Z (ip), vehicle: methylcellulose (MC) 97 % of control

O=C(Nc1ccc(C2=NCCN2)cc1)c1ccc(C(=O)Nc2ccc(C3=NCCN3)cc2)c(O)c1
inactive: dose: 15.0 mg/kg/injection, schedule: Q01DX Z (ip), vehicle: methylcellulose (MC) 96 % of control | dose: 30.0 mg/kg/injection, schedule: Q01DX Z (ip), vehicle: methylcellulose (MC) 98 % of control | dose: 60.0 mg/kg/injection, schedule: Q01DX Z (ip), vehicle: methylcellulose (MC) 93 % of control | dose: 120.0 mg/kg/injection, schedule: Q01DX Z (ip), vehicle: methylcellulose (MC) 93 % of control

[O-]/[N+](=C\c1ccccc1)c1ccccc1
inactive: dose: 50.0 mg/kg/injection, schedule: Q01DX001 (ip), vehicle: saline 110 % of control | [1] 110 % of control | [2] 108 % of control

Cc1ccc(Nc2nnc(N=Nc3ccccc3)s2)cc1C
inactive: dose: 100.0 mg/kg/injection, schedule: Q01DX009 (ip), vehicle: other 101 % of control | dose: 200.0 mg/kg/injection, schedule: Q01DX009 (ip), vehicle: other 98 % of control | dose: 400.0 mg/kg/injection, schedule: Q01DX009 (ip), vehicle: other 98 % of control

[O-][n+]1c2ccccc2c(Oc2ccccc2)c2ccc3ccccc3c21
inactive: dose: 100.0 mg/kg/injection, schedule: Q04DX003 (ip), vehicle: saline with Tween-80 95 % of control | dose: 400.0 mg/kg/injection, schedule: Q04DX003 (ip), vehicle: saline with Tween-80 92 % of control

c1cc[c]([Sn]([S]c2ccccn2)([c]2ccccc2)[c]2ccccc2)cc1
inactive: dose: 6.25 mg/kg/injection, schedule: Q04DX002 (ip), vehicle: saline with Tween-80 93 % of control | dose: 12.5 mg/kg/injection, schedule: Q04DX002 (ip), vehicle: saline with Tween-80 93 % of control | dose: 25.0 mg/kg/injection, schedule: Q04DX002 (ip), vehicle: saline with Tween-80 108 % of control

CCC(C)C(C(=O)OCCN(CC)CC)c1ccccc1 (configuration not stated)
inactive: [3] 95 % of control | [4] 97 % of control | [5] 96 % of control | [6] 104 % of control | [7] 91 % of control

COc1cc(OC)c(-c2nc3ccc(C)cc3c(=O)o2)cc1OC
inactive: dose: 100.0 mg/kg/injection, schedule: Q04DX002 (ip), vehicle: saline with Tween-80 103 % of control | dose: 200.0 mg/kg/injection, schedule: Q04DX002 (ip), vehicle: saline with Tween-80 100 % of control | dose: 400.0 mg/kg/injection, schedule: Q04DX002 (ip), vehicle: saline with Tween-80 103 % of control

C/C(CCC(=O)O)=N\NC(=O)COc1ccc(Cl)cc1Cl
inactive: [5] 94 % of control | [7] 98 % of control

CC(C)CCC[C@@H](C)[C@H]1CC[C@H]2[C@@H]3CC=C4C[C@@H](O)CC[C@]4(C)[C@H]3CC[C@]12C
inactive: [1] 92 % of control | [4] 94 % of control | [5] 97 % of control | [2] 95 % of control | [6] 91 % of control | [7] 89 % of control | [8] 92 % of control | dose: 400.0 mg/kg/injection, schedule: Q01DX009 (ip), vehicle: Klucel (hydroxypropylcellulose) (HPC) 92 % of control | [9] 94 % of control

CN(CCNC(=O)c1ccc(Cl)cc1)c1ccccc1
inactive: dose: 100.0 mg/kg/injection, schedule: Q04DX002 (ip), vehicle: Klucel (hydroxypropylcellulose) (HPC) 96 % of control | dose: 200.0 mg/kg/injection, schedule: Q04DX002 (ip), vehicle: Klucel (hydroxypropylcellulose) (HPC) 96 % of control | dose: 400.0 mg/kg/injection, schedule: Q04DX002 (ip), vehicle: Klucel (hydroxypropylcellulose) (HPC) 86 % of control

OC1c2ccccc2C=Cc2ccccc21
inactive: [5] 104 % of control | [7] 101 % of control | [9] 101 % of control

O=C(Nc1cccc(O)c1)Nc1cccc(C(F)(F)F)c1
inactive: dose: 100.0 mg/kg/injection, schedule: Q01DX001 (ip), vehicle: carboxymethylcellulose (CMC) 92 % of control and 101 % of control | dose: 100.0 mg/kg/injection, schedule: Q01DX009 (ip), vehicle: carboxymethylcellulose (CMC) 94 % of control and 96 % of control | dose: 100.0 mg/kg/injection, schedule: Q04DX002 (ip), vehicle: carboxymethylcellulose (CMC) 92 % of control and 93 % of control | dose: 100.0 mg/kg/injection, schedule: Q04DX003 (ip), vehicle: carboxymethylcellulose (CMC) 95 % of control and 100 % of control | dose: 200.0 mg/kg/injection, schedule: Q01DX001 (ip), vehicle: carboxymethylcellulose (CMC) 96 % of control and 87 % of control | dose: 200.0 mg/kg/injection, schedule: Q01DX009 (ip), vehicle: carboxymethylcellulose (CMC) 94 % of control and 100 % of control | dose: 200.0 mg/kg/injection, schedule: Q04DX002 (ip), vehicle: carboxymethylcellulose (CMC) 92 % of control and 86 % of control | dose: 200.0 mg/kg/injection, schedule: Q04DX003 (ip), vehicle: carboxymethylcellulose (CMC) 92 % of control and 91 % of control | dose: 400.0 mg/kg/injection, schedule: Q01DX001 (ip), vehicle: carboxymethylcellulose (CMC) 92 % of control and 93 % of control | dose: 400.0 mg/kg/injection, schedule: Q01DX009 (ip), vehicle: carboxymethylcellulose (CMC) 100 % of control and 91 % of control | dose: 400.0 mg/kg/injection, schedule: Q04DX002 (ip), vehicle: carboxymethylcellulose (CMC) 95 % of control and 100 % of control | dose: 400.0 mg/kg/injection, schedule: Q04DX003 (ip), vehicle: carboxymethylcellulose (CMC) 87 % of control and 91 % of control

CC(C)c1cc(C(C)C)c(S(=O)(=O)/C=C/c2ccccc2)c(C(C)C)c1
inactive: [1] 104 % of control | dose: 100.0 mg/kg/injection, schedule: Q01DX009 (ip), vehicle: saline 91 % of control | dose: 100.0 mg/kg/injection, schedule: Q04DX003 (ip), vehicle: acetone 100 % of control | [2] 97 % of control | dose: 200.0 mg/kg/injection, schedule: Q01DX009 (ip), vehicle: saline 93 % of control | dose: 200.0 mg/kg/injection, schedule: Q04DX003 (ip), vehicle: acetone 97 % of control | [8] 92 % of control | dose: 400.0 mg/kg/injection, schedule: Q01DX009 (ip), vehicle: saline 89 % of control | dose: 400.0 mg/kg/injection, schedule: Q04DX003 (ip), vehicle: acetone 105 % of control

CCCOc1ccc(-c2nc(-c3ccc(N=Cc4ccc(N(CCOS(C)(=O)=O)CCOS(C)(=O)=O)cc4Cl)cc3)cs2)cc1
inactive: [3] 107 % of control | dose: 100.0 mg/kg/injection, schedule: Q01DX001 (ip), vehicle: Klucel (hydroxypropylcellulose) (HPC) 102 % of control | [4] 100 % of control | dose: 200.0 mg/kg/injection, schedule: Q01DX001 (ip), vehicle: Klucel (hydroxypropylcellulose) (HPC) 100 % of control | [6] 107 % of control | dose: 400.0 mg/kg/injection, schedule: Q01DX001 (ip), vehicle: Klucel (hydroxypropylcellulose) (HPC) 96 % of control

CCCCCc1c2c(c(CCCCC)c3c1-c1cccc4cccc-3c14)-c1ccc(C)cc1C2
inactive: dose: 100.0 mg/kg/injection, schedule: Q01DX001 (ip), vehicle: saline with Tween-80 92 % of control | dose: 400.0 mg/kg/injection, schedule: Q01DX001 (ip), vehicle: saline with Tween-80 87 % of control

CCOC(=O)c1cnc(SC)nc1N1CCOCC1
inactive: [5] 98 % of control | [7] 93 % of control | [9] 100 % of control

Nc1ccc2ncnn2c1
inactive: [1] 103 % of control | [2] 106 % of control | [8] 101 % of control
